Measurements published in patent publication US11447487B2, “Spiroheptanyl hydantoins as rock inhibitors” (BRISTOL-MYERS SQUIBB COMPANY, priority 2017, dated 2022).

system: IL-1 beta-induced coronary stenosis; experiment: not given; details: long term treatment; cited from earlier work

| Structure (SMILES) | coronary constrictive remodeling | coronary stenosis |
| --- | --- | --- |
| O=S(=O)(c1cccc2cnccc12)N1CCCNCC1 [fasudil] | promote a regression of coronary constrictive remodeling | progressively reduce coronary stenosis |

target: ROCK2 (Homo sapiens (Human), UniProt O75116); experiment: ROCK assay (Caliper LABCHIP peptide phosphorylation); assay type: biochemical; details: 5 μM ATP, 1.5 μM peptide substrate
Sequence (O75116 whole entry, species assumed): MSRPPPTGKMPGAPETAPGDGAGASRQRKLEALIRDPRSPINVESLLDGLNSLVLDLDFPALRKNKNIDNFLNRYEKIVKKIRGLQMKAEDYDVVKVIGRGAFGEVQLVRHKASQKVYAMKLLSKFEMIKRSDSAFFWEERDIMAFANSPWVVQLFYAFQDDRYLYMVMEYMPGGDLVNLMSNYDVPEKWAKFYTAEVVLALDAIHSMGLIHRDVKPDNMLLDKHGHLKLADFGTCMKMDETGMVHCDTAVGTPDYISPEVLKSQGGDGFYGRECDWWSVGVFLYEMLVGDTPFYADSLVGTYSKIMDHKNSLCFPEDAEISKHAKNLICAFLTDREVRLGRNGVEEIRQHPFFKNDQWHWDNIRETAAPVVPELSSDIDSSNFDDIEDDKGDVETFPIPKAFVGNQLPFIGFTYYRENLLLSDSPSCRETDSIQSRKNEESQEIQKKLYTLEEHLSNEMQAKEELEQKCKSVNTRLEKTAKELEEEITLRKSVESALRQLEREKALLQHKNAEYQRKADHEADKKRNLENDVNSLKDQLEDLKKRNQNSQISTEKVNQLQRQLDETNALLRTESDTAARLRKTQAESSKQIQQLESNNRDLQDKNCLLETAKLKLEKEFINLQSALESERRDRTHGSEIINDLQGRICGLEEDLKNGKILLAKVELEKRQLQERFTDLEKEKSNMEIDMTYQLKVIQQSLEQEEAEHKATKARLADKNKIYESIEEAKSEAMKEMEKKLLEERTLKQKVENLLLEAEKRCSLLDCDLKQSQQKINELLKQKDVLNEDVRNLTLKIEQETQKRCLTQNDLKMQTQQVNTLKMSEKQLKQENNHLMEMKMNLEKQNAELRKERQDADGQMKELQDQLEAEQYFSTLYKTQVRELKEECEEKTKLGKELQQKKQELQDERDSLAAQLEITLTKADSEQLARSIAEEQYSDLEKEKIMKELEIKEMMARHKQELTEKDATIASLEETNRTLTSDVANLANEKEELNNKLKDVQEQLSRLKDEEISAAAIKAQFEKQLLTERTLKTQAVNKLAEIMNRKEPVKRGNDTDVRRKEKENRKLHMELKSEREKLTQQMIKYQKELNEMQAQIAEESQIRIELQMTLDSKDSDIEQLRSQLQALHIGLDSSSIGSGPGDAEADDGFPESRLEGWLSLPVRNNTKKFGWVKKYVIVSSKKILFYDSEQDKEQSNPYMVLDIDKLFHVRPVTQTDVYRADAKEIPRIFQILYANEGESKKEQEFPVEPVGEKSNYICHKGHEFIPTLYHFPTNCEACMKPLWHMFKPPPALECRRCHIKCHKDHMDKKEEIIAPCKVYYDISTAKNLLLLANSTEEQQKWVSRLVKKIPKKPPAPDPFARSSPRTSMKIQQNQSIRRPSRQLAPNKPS
How it was run: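 Human ROCK2 reaction with 5 μM ATP and 1.5 μM FITC-labelled peptide substrate in 20 mM HEPES pH 7.5, 20 mM MgCl2, 4 mM DTT, DMSO <2%; stopped with EDTA. Phosphorylated and unphosphorylated peptide separated by microfluidic mobility shift; IC50 from dose-response curve fit.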

| IC50 [nM] | Structure (SMILES) |
| --- | --- |
| 614 | NC(=O)c1cccnc1O[C@H]1C[C@]2(C1)C[C@H](N1C(=O)C[C@H](c3cccc(Br)c3)NC1=O)C2 (stereo partly drawn) [Example 77, 2-{[(αR)-6-[(4R)-4-(3-bromophenyl)-2,6-dioxo-1,3-diazinan-1-yl]-spiro[3.3]heptan-2-yl]oxy}pyridine-3-carboxamide] |
| 963 | C=CC[C@@H]1CC(=O)N([C@H]2C[C@@]3(C[C@H](Oc4ncccc4C(N)=O)C3)C2)C(=O)N1 (stereo partly drawn) [Example 78, 2-{[(αR)-6-[(4R)-2,6-dioxo-4-(prop-2-en-1-yl)-1,3-diazinan-1-yl]-spiro[3.3]heptan-2-yl]oxy}pyridine-3-carboxamide] |
| 131 | [H][C@]1(Oc2ncccc2C(N)=O)C[C@]2(C[C@@H](N3C(=O)NCC(CC(C)C)C3=O)C2)C1 (stereo partly shown) [Example 79] |
| 2 | [H][C@]1(Oc2ncccc2C(N)=O)C[C@]2(C[C@@H](N3C(=O)CN(c4cccc(Cl)c4)C3=O)C2)C1 (stereo partly drawn) [Example 80, 2-(((aR)-6-(3-(3-chlorophenyl)-2,5-dioxoimidazolidin-1-yl)spiro[3.3]heptan-2-yl)oxy)nicotinamide] |
| 3 | NC(=O)c1cccnc1OC1CC2(C1)CC(N1C(=O)CN(c3ccccc3OC(F)F)C1=O)C2 (stereo not shown) [Example 81, 2-(((αR)-6-(3-(2-(difluoromethoxy)phenyl)-2,5-dioxoimidazolidin-1-yl)spiro[3.3]heptan-2-yl)oxy)nicotinamide] |
| 5 | NC(=O)c1cccnc1O[C@H]1C[C@]2(C1)C[C@H](N1C(=O)CN(c3cccc(C(F)(F)F)c3)C1=O)C2 (stereo partly shown) [Example 82, 2-(((αR)-6-(2,5-dioxo-3-(3-(trifluoromethyl)phenyl)imidazolidin-1-yl)spiro[3.3]heptan-2-yl)oxy)nicotinamide] |
| 9 | NC(=O)c1cccnc1O[C@H]1C[C@]2(C1)C[C@H](N1C(=O)CN(c3ccc(Oc4ccccc4)cc3)C1=O)C2 (stereo partly shown) [Example 83, 2-(((αR)-6-(2,5-dioxo-3-(4-phenoxyphenyl)imidazolidin-1-yl)spiro[3.3]heptan-2-yl)oxy)nicotinamide] |
| 17 | NC(=O)c1cccnc1O[C@H]1C[C@]2(C1)C[C@H](N1C(=O)CN(c3ccc(Cc4ccccc4)cc3)C1=O)C2 (stereo partly shown) [Example 84, 2-(((αR)-6-(3-(4-benzylphenyl)-2,5-dioxoimidazolidin-1-yl)spiro[3.3]heptan-2-yl)oxy)nicotinamide] |
| 6 | NC(=O)c1cccnc1O[C@H]1C[C@]2(C1)C[C@H](N1C(=O)CN(c3cccc(F)c3)C1=O)C2 (stereo partly shown) [Example 85, 2-(((αR)-6-(3-(3-fluorophenyl)-2,5-dioxoimidazolidin-1-yl)spiro[3.3]heptan-2-yl)oxy)nicotinamide] |
| 5 | NC(=O)c1cccnc1O[C@H]1C[C@]2(C1)C[C@H](N1C(=O)CN(c3ccc(C(F)(F)F)cc3)C1=O)C2 (stereo partly shown) [Example 87, 2-(((αR)-6-(2.5-dioxo-3-(4-(trifluoromethyl)phenyl)imidazolidin-1-yl)spiro[3.3]heptan-2-yl)oxy)nicotinamide] |
| 55 | CC(C)(O)COc1cccc(N2CC(=O)N([C@H]3C[C@@]4(C[C@H](Oc5ncccc5C(N)=O)C4)C3)C2=O)c1 (stereo partly shown) [Example 88, 2-(((αR)-6-(3-(3-(2-hydroxy-2-methylpropoxy)phenyl)-2,5-dioxoimidazolidin-1-yl)spiro[3.3]heptan-2-yl)oxy)nicotinamide] |
| 13 | CS(=O)(=O)c1cccc(N2CC(=O)N([C@H]3C[C@@]4(C[C@H](Oc5ncccc5C(N)=O)C4)C3)C2=O)c1 (stereo partly shown) [Example 89, 2-(((αR)-6-(3-(3-(methylsulfonyl)phenyl)-2,5-dioxoimidazolidin-1-yl)spiro[3.3]heptan-2-yl)oxy)nicotinamide] |
| 21 | C/C(=C\c1ccccc1)CC1NC(=O)N([C@H]2C[C@@]3(C[C@H](Oc4ncccc4C(N)=O)C3)C2)C1=O (stereo partly shown) [Example 90, 2-(((αR)-6-(4-((E)-2-methyl-3-phenylallyl)-2,5-dioxoimidazolidin-1-yl)spiro[3.3]heptan-2-yl)oxy)nicotinamide] |
| 29 | [H][C@]1(Oc2ncccc2C(N)=O)C[C@]2(C[C@@H](N3C(=O)NC(CC(C)Cc4ccccc4)C3=O)C2)C1 (stereo partly drawn) [Example 91, 2-(((aR)-6-(4-(2-methyl-3-phenylpropyl)-2,5-dioxoimidazolidin-1-yl)spiro[3.3]heptan-2-yl)oxy)nicotinamide] |
| 6 | C[C@H](C[C@@H]1NC(=O)N([C@H]2C[C@@]3(C[C@H](Oc4ncccc4C(N)=O)C3)C2)C1=O)C(F)(F)F (stereo partly drawn) [Example 92, 2-(((αR)-6-((S)-2,5-dioxo-4-((R)-3,3,3-trifluoro-2-methylpropyl)imidazolidin-1-yl)spiro[3.3]heptan-2-yl)oxy)nicotinamide] |
| 9 | C[C@@H](C[C@@H]1NC(=O)N([C@H]2C[C@@]3(C[C@H](Oc4ncccc4C(N)=O)C3)C2)C1=O)C(F)(F)F (stereo partly drawn) [Example 93, 2-(((αR)-6-((S)-2,5-dioxo-4-((S)-3,3,3-trifluoro-2-methylpropyl)imidazolidin-1-yl)spiro[3.3]heptan-2-yl)oxy)nicotinamide] |
| 27 | CC(C)(CC1NC(=O)N([C@H]2C[C@@]3(C[C@H](Oc4ncccc4C(N)=O)C3)C2)C1=O)c1ccccc1 (stereo partly shown) [Example 94, 2-(((αR)-6-(2,5-dioxo-4-(2-phenyl-2-methylpropyl)imidazolidin-1-yl)spiro[3.3]heptan-2-yl)oxy)nicotinamide] |
| 6 | CC(C[C@@H]1NC(=O)N([C@H]2C[C@@]3(C[C@H](Oc4ncccc4C(N)=O)C3)C2)C1=O)c1ccccc1 (stereo partly drawn) [Example 95, 2-(((αR)-6-((S)-2,5-dioxo-4-(2-phenyl-propyl)imidazolidin-1-yl)spiro[3.3]heptan-2-yl)oxy)nicotinamide] |
| 264 | CC(C[C@H]1NC(=O)N([C@H]2C[C@@]3(C[C@H](Oc4ncccc4C(N)=O)C3)C2)C1=O)c1ccccc1 (stereo partly drawn) [Example 96, 2-(((αR)-6-((R)-2,5-dioxo-4-(2-phenyl-propyl)imidazolidin-1-yl)spiro[3.3]heptan-2-yl)oxy)nicotinamide] |
| 28 | NC(=O)c1cccnc1O[C@H]1CC2(C1)C[C@H](N1C(=O)N[C@@H](CC3CCC(NC(=O)OCc4ccccc4)CC3)C1=O)C2 (stereo partly shown) [Example 97] |
| 52 | NC(=O)c1cccnc1O[C@H]1C[C@]2(C1)C[C@H](N1C(=O)NC(CC3CCN(C(=O)OCc4ccccc4)CC3)C1=O)C2 (stereo partly shown) [Example 98, 2-(((αR)-6-(2,5-dioxo-4-(N-benzyloxycarbonyl-piperidin-4-ylmethyl)imidazolidin-1-yl)spiro[3.3]heptan-2-yl)oxy)nicotinamide] |
| 659 | NC(=O)c1cccnc1O[C@H]1C[C@]2(C1)C[C@H](N1C(=O)NC(C[C@@H]3C[C@H]4CC[C@@H](C3)N4C(=O)OCc3ccccc3)C1=O)C2 (stereo partly shown) [Example 99, benzyl 3-((1-((αR)-6-((3-carbamoylpyridin-2-yl)oxy)spiro[3.3]heptan-2-yl)-2,5-dioxoimidazolidin-4-yl)methyl)-8-azabicyclo[3.2.1] octane-8-carboxylate] |
| 52 | [H][C@]1(Oc2ncccc2C(N)=O)C[C@@]2(C[C@H](N3C(=O)N[C@@H](C[C@H]4CC[C@H](NC(=O)c5ccccc5)CC4)C3=O)C2)C1 (stereo partly shown) [Example 100] |
| 146 | NC(=O)c1cccnc1O[C@H]1C[C@]2(C1)C[C@H](N1C(=O)NC(CC3CCN(C(=O)c4ccccc4)CC3)C1=O)C2 (stereo partly shown) [Example 101, 2-(((αR)-6-(2,5-dioxo-4-(N-benzoylpiperidin-4-ylmethyl)imidazolidin-1-yl)spiro[3.3]heptan-2-yl)oxy)nicotinamide] |
| 5 | [H][C@]1(Oc2nc(OC)ccc2C(N)=O)C[C@]2(C[C@@H](N3C(=O)N[C@@H](CC(C)C(F)(F)F)C3=O)C2)C1 (stereo partly shown) [Example 102] |

system: neointimal formation in rats; experiment: not given; details: cited from earlier work

| Structure (SMILES) | neointimal formation |
| --- | --- |
| C[C@@H](N)[C@H]1CC[C@H](C(=O)Nc2ccncc2)CC1 [Example Y-27632, Y-27632] | inhibited neointimal formation |

system: Dahl salt-sensitive rats; experiment: not given; details: rat, in vivo; cited from earlier work

| Structure (SMILES) | ventricular hypertrophy, fibrosis and function |
| --- | --- |
| C[C@@H](N)[C@H]1CC[C@H](C(=O)Nc2ccncc2)CC1 [Example Y-27632, Y-27632] | improve ventricular hypertrophy, fibrosis and function |

system: spontaneously hypertensive rat, renal hypertensive rat and deoxycortisone acetate salt hypertensive rat models; experiment: not given; details: control rats; cited from earlier work

| Structure (SMILES) | blood pressure in control rats |
| --- | --- |
| C[C@@H](N)[C@H]1CC[C@H](C(=O)Nc2ccncc2)CC1 [Example Y-27632, Y-27632] | only a minor effect on blood pressure |

same assay, conditions: three rat models of hypertension; cited from earlier work

| Structure (SMILES) | blood pressure |
| --- | --- |
| C[C@@H](N)[C@H]1CC[C@H](C(=O)Nc2ccncc2)CC1 [Example Y-27632, Y-27632] | significantly decrease blood pressure |
